Reference: patent publication US20240024491A1, “MANNOSYLATED AMINE DEXTRAN DRUG DELIVERY VEHICLES WITH DEGRADABLE DISULFIDE/CARBONATE LINKERS TARGETING PAYLOADS TO CD206 EXPRESSING CELLS” (Navidea Biopharmaceuticals, Inc., priority 2022, published 2024)

Legend:
CT26 cells = assay: CT26/Balb-c syngeneic mouse tumor model; format: in vivo; conditions: intravenous injections on treatment days 1, 4, 7 and 11; MAD-PAC3.5 127 μg/injection, free paclitaxel molar equivalent
Protocol: Mice were implanted with CT26 cells that were permitted to grow and become established until they had attained tumor volumes of 80-100 mm 3. Tumor bearing mice (n=10/treatment group) were administered test articles by intravenous injections on 4 days (treatment days, 1, 4, 7, and 11). […] Tumor volumes were measured and recorded at regular intervals.

human macrophages = assay: Human macrophage cell culture assay, surface marker expression (MFI) by flow cytometry; format: cell-based; conditions: MAD-PAC3.5 or equal molar equivalent concentration of free paclitaxel; vs no drug control
Protocol: In this assay, human peripheral blood monocytes (hPBMCs) were incubated for five days in RPMI+10% FBS+1x Penicillin/Streptomycin/L-glutamine+5Ong/mlGM-CSF (complete medium) at a concentration of 500,000 monocytes per well in 48 well tissue culture plates. […] GM-CSF induces the macrophages to adopt an activated phenotype that is intermediate between the extremes of M1 or M2. […] Saline and Vehicle (MAD without a drug payload, 23.3 μg/ml) were added as alternative supplements to other cultures as negative controls. The macrophage cell cultures were incubated with the supplemented complete medium for 24 hours after which it was removed and replaced with fresh complete medium. The macrophage cultures were then incubated for an additional three days. The three-day post treatment incubation was performed to permit assessment of durable changes in macrophage phenotypes.
After the additional three-day incubation in fresh complete medium, the cells were harvested and evaluated by flow cytometry for viability (DAPI) or expression of macrophage surface markers. These markers are representative of markers that are frequently considered as indicative of either M1-like or M2-like phenotypes or are known immune checkpoint receptors. The evaluated cell surface markers included CD206, CD163, CD80, CD86, MHC1, MHC2, SIRPa, and PD-1 using antibodies specific for each marker. […] The outputs of the flow cytometry assays were mean fluorescent intensities (MFI). Macrophages differentiated from monocytes collected from three separate donors were evaluated for all treatments. For each donor's macrophages, all experiments were run in triplicate.

## CC(=O)O[C@H]1C(=O)[C@@]2(C)[C@H]([C@H](OC(=O)c3ccccc3)[C@]3(O)C[C@H](OC(=O)[C@H](O)[C@@H](NC(=O)c4ccccc4)c4ccccc4)C(C)=C1C3(C)C)[C@]1(OC(C)=O)CO[C@@H]1C[C@@H]2O [free paclitaxel, paclitaxel]
CT26 cells
  mean tumor volume on treatment day 14 compared to saline: modestly decreased mean tumor volumes
Human macrophages
  expression of CD80: increased the expression
  expression of CD86: increased the expression
  expression of CD163: modestly increased expression
  expression of CD206: modestly increased expression
  expression of MHC1: not significantly altered
  expression of MHC2: not significantly altered
  expression of PD1: not by free paclitaxel
  expression of SIRPa: not significantly altered
